Data published in patent US20010020032A1, “COATED PARTICLE FORMULATION” (priority 1996, published 2001).

Tests used:
[1] = Polymorphic stability of Form II on solvent contact; type: physicochemical; conditions: contact with methylene chloride
[2] = Detection of radiolabelled compound in saliva; type: in vivo
Procedure: Olanzapine is effective over a wide dosage range, the actual dose administered being dependent on the condition being treated. For example, in the treatment of adult humans, dosages of from about 0.25 to 50 mg, preferably from 1 to 30 mg, and most preferably 1 to 25 mg per day may be used. A once a day dosage is normally sufficient, although divided doses may be administered. For treatment of central nervous system disorders, a dose range of from 1 to 30 mg, preferably 1 to 25 mg per day is suitable.

[3] = Stability studies: discoloration on storage or excipient contact; type: physicochemical; conditions: olanzapine substance in contact with polyethylene glycol, particularly under moist conditions

Cc1cc2c(s1)Nc1ccccc1N=C2N1CCN(C)CC1 [Form II, 2-methyl-4-(4-methyl-1-piperazinyl)-10H-thieno[2,3-b][1,5]benzodiazepine]
conversion to other polymorphic forms [1]: can be converted to less desirable polymorphic forms

Cc1cc2c(s1)Nc1ccccc1N=C2N1CCN(C)CC1 [Radiolabelled Form II, 2-methyl-4-(4-methyl-1-piperazinyl)-10H-thieno-[2,3-b][1,5]benzodiazepine]
detection in saliva [2]: can be detected in the saliva

Cc1cc2c(s1)Nc1ccccc1N=C2N1CCN(C)CC1 [olanzapine, 2-methyl-4-(4-methyl-1-piperazinyl)-10H-thieno[2,3-b][1,5] benzodiazepine]
discoloration on polyethylene glycol contact [3]: produces undesired discoloration
